# Test results published in patent US20080319375A1, “Materials, Methods, and Systems for Cavitation-mediated Ultrasonic Drug Delivery in vivo” (Biovaluation & Analysis, Inc., priority 2007, published 2008).
# Assay: Micropipette aspiration of polymersome membranes
# Format: physicochemical
# Text: Thermal undulations of the quasi-spherical polymersome membranes provide an immediate indication of membrane softness. […] The micromanipulations are done with micropipette systems, as described above, and analogous to those described by Longo et al. (1997) and by Discher et al. (1994).
# Analogous to a lipid bilayer, at low but increasing aspiration pressures, the thermally undulating polymersome membrane is progressively smoothed, increasing the projected area logarithmically with tension, t. From the slope of this increase (i.e., in tension units of mN/m) versus the fractional change, α, in vesicle area, the bending modulus, Kb, is calculated (see, e.g., Evans et al., 1990) with the following equation:
# Kb≅kBT ln(t)/(8απ)+constant Equation 3 […]
# Despite the comparative toughness of the polymersome membrane, a core “cavitation pressure,” Pc, may be readily estimated as pc=tc/d (5) yielding a value of pc=−25 atm. […] Bulk liquids such as water and light organics, are commonly reported to have measured tensile strengths of such a magnitude as may be generically estimated from a ratio of nominal interfacial tensions to molecular dimensions (i.e., ˜γ/d).
compound,measurement,value
"CCCCCCCC/C=C\CCCCCCCC(=O)O[C@H](COC(=O)CCCCCCCCCCCCCCCCC)COP(=O)([O-])OCC[N+](C)(C)C [SOPC, 1-stearoyl-2-oleoyl phosphatidylcholine]","area expansion modulus, Ka",~180 mN/m
